Measured values from the NIST ThermoML archive (doi:10.1016/j.fluid.2015.03.033).
Several values for one entry are separate records, joined by “and”; a condition that tells them apart may be missing. Equal values may be shown once. Numbers after ± are expanded uncertainties.

Legend:
[1] = Liquid, Closed cell (Static) method
[2] = excess molar enthalpy (molar enthalpy of mixing); xn = mol fraction of the nth substance listed; settings: 303.15 K, 100 kPa, Liquid, Calvet calorimetry

Cc1cnccn1 [2-methylpyrazine]
[1]
Settings | vapor or sublimation pressure [kPa]
263.72 K | 0.109 ± 0.06
273.47 K | 0.23 ± 0.06
283.27 K | 0.457 ± 0.06
293.24 K | 0.866 ± 0.021
303.18 K | 1.563 ± 0.012
313.12 K | 2.697 ± 0.014
323.13 K | 4.476 ± 0.018
333.11 K | 7.151 ± 0.024
343.05 K | 11.03 ± 0.033
353.03 K | 16.61 ± 0.046
362.95 K | 24.08 ± 0.059

Cc1cnccn1 [2-methylpyrazine] + C1CCCCC1
[2]
Settings | excess molar enthalpy [kcal/mol]
x1 = 0.094 | 0.163 ± 0.017
x1 = 0.153 | 0.234 ± 0.0237
x1 = 0.251 | 0.308 ± 0.0311
x1 = 0.381 | 0.356 ± 0.0359
x1 = 0.474 | 0.364 ± 0.0359
x1 = 0.566 | 0.36 ± 0.0359
x1 = 0.639 | 0.331 ± 0.0335
x1 = 0.766 | 0.242 ± 0.0239
x1 = 0.845 | 0.175 ± 0.0179

Cc1cnccn1 [2-methylpyrazine] + CCCCCCC
[2]
Settings | excess molar enthalpy [kcal/mol]
x1 = 0.082 | 0.135 ± 0.0146
x1 = 0.175 | 0.257 ± 0.0263
x1 = 0.335 | 0.353 ± 0.0359
x1 = 0.411 | 0.369 ± 0.0359
x1 = 0.481 | 0.37 ± 0.0359
x1 = 0.523 | 0.369 ± 0.0359
x1 = 0.622 | 0.344 ± 0.0335
x1 = 0.704 | 0.298 ± 0.0287
x1 = 0.809 | 0.231 ± 0.0234
x1 = 0.877 | 0.167 ± 0.0172

Cc1cnccn1 [2-methylpyrazine] + Cc1ccccc1
[2]
Settings | excess molar enthalpy [kcal/mol]
x1 = 0.156 | 0.00669 ± 0.000717
x1 = 0.256 | 0.0115 ± 0.0012
x1 = 0.421 | 0.0174 ± 0.00167
x1 = 0.465 | 0.0179 ± 0.00191
x1 = 0.475 | 0.0179 ± 0.00191
x1 = 0.561 | 0.0165 ± 0.00167
x1 = 0.698 | 0.00932 ± 0.000956
x1 = 0.76 | 0.00693 ± 0.000717

C1CCCCC1 [cyclohexane]
[1]
Settings | vapor or sublimation pressure [kPa]
283.32 K | 6.389 ± 0.023
288.28 K | 8.195 ± 0.026
293.27 K | 10.42 ± 0.031
298.25 K | 13.17 ± 0.037
303.27 K | 16.45 ± 0.046
313.24 K | 24.97 ± 0.062
323.21 K | 36.72 ± 0.086
333.21 K | 52.48 ± 0.12
343.18 K | 72.98 ± 0.15
353.14 K | 99.11 ± 0.2

CCCCCCC [heptane]
[1]
Settings | vapor or sublimation pressure [kPa]
263.45 K | 0.817 ± 0.008
273.27 K | 1.548 ± 0.011
283.21 K | 2.77 ± 0.014
293.25 K | 4.772 ± 0.019
303.15 K | 7.807 ± 0.026
313.12 K | 12.41 ± 0.037
323.1 K | 18.98 ± 0.052
333.07 K | 28.13 ± 0.073
343.04 K | 40.62 ± 0.1
353.01 K | 57.56 ± 0.13

Cc1ccccc1 [toluene]
[1]
Settings | vapor or sublimation pressure
263.64 K | 0.484 ± 0.005 kPa
273.47 K | 0.925 ± 0.009 kPa
283.32 K | 1.68 ± 0.011 kPa
293.24 K | 2.926 ± 0.014 kPa
298.25 K | 3.803 ± 0.016 kPa
303.21 K | 4.896 ± 0.019 kPa
303.23 K | 4.896 ± 0.019 kPa and 4.894 ± 0.019 kPa
313.19 K | 7.872 ± 0.025 kPa
313.22 K | 7.872 ± 0.025 kPa
323.22 K | 12.25 ± 0.035 kPa
333.2 K | 18.57 ± 0.049 kPa
343.16 K | 27.2 ± 0.064 kPa
